This assay has as its target T1, Aromatase (Homo sapiens, UniProt P11511).
T1 sequence (P11511 whole entry): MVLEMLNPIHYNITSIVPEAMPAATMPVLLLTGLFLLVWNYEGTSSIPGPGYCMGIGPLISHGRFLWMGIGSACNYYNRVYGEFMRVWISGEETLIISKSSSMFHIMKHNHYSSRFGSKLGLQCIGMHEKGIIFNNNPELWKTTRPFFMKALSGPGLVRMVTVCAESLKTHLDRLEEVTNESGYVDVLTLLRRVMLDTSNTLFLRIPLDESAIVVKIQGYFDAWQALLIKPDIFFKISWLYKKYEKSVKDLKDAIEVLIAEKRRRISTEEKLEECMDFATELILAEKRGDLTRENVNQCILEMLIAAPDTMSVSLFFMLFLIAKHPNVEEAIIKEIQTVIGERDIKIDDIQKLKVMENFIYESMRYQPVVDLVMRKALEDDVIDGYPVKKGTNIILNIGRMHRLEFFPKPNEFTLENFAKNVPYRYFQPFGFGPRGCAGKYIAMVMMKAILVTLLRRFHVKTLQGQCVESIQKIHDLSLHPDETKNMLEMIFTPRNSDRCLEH
The experiment in a line: Inhibition of recombinant human aromatase using 7-methoxy-trifluoromethylcoumarin as substrate incubated for 30 mins by fluorescence microplate reader analysis.

As usually defined, the IC50 is the concentration at which inhibition is half-maximal.

In the case of `O=[N+]([O-])c1ccc(N(Cc2cccc(C(F)(F)F)c2)n2cnnc2)cc1Br`, the 50% inhibitory concentration (IC50) was 17.4 nM. Consider `O=[N+]([O-])c1ccc(N(Cc2ccc(C(F)(F)F)cc2)n2cnnc2)cc1Br`, for which the 50% inhibitory concentration (IC50) was found to be 43.6 nM.

For `O=[N+]([O-])c1ccc(N(Cc2ccccc2)n2cnnc2)cc1Br`, the IC50 was found to be 39.8 nM. For `N#Cc1cccc(CN(c2ccc([N+](=O)[O-])c(-c3ccccc3)c2)n2cnnc2)c1` the value was 73.2 nM; for `O=[N+]([O-])c1ccc(Nn2cnnc2)cc1Br`, 90.7 nM. For `O=[N+]([O-])c1ccc(N(Cc2cccc(C(F)(F)F)c2)n2cnnc2)cc1-c1ccccc1` the value was 17.4 nM.

With `O=[N+]([O-])c1ccc(N(Cc2ccc(C(F)(F)F)cc2)n2cnnc2)cc1-c1ccccc1`, the IC50 is 14.5 nM. Then `O=[N+]([O-])c1cccc(CN(c2ccc([N+](=O)[O-])c(-c3ccccc3)c2)n2cnnc2)c1`, with 19.7 nM. For `N#Cc1ccccc1CN(c1ccc([N+](=O)[O-])c(Br)c1)n1cnnc1` the value was 58.8 nM. Then `N#Cc1cccc(CN(c2ccc([N+](=O)[O-])c(Br)c2)n2cnnc2)c1`, with 57.6 nM. Regarding `O=[N+]([O-])c1ccc(N(Cc2ccc(Cl)cc2)n2cnnc2)cc1Br`, the IC50 was determined as 9.02 nM. For `O=[N+]([O-])c1cccc(CN(c2ccc([N+](=O)[O-])c(Br)c2)n2cnnc2)c1` the value was 12.1 nM. Then `O=[N+]([O-])c1ccc(N(Cc2ccccc2)n2cnnc2)cc1-c1ccccc1`, with 30.2 nM.

Source of the values: ChEMBL document CHEMBL4477276, “Synthesis and aromatase inhibitory evaluation of 4-N-nitrophenyl substituted amino-4H-1,2,4-triazole derivatives” (Bioorg Med Chem, 2016).
